According to patent publication US10266526B2, “Substituted 1,2,3-triazoles as SMYD inhibitors for treating cancer” (EPIZYME, INC., priority 2014, dated 2019):
Read-outs that look alike come from different tables or passages of the source.

Target: SMYD3 (Homo sapiens (Human), UniProt Q9H7B4)
Experiment: SMYD3 biochemical assay (SMYD3 enzyme assay on MEKK2 protein substrate, 3H-SAM scintillation proximity assay)
Outline: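 Native full-length human SMYD3, expressed in E. coli, was preincubated with compound for 30 min at room temperature in 25 mM Tris-Cl pH 8.0, 1 mM TCEP, 0.005% BSG and 0.005% Tween 20. ³H-SAM plus GST-MEKK2 then started the reaction. It was stopped with unlabeled SAM (100 uM final), and methylated MEKK2 was read by SPA.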

[1] = read-out: SMYD3 Biochem IC50 (μM)*
[2] = Table 1A, average of n = 1 to n = 50, read-out: SMYD3 Biochem IC50

Chain of SMYD3 (Q9H7B4 whole entry): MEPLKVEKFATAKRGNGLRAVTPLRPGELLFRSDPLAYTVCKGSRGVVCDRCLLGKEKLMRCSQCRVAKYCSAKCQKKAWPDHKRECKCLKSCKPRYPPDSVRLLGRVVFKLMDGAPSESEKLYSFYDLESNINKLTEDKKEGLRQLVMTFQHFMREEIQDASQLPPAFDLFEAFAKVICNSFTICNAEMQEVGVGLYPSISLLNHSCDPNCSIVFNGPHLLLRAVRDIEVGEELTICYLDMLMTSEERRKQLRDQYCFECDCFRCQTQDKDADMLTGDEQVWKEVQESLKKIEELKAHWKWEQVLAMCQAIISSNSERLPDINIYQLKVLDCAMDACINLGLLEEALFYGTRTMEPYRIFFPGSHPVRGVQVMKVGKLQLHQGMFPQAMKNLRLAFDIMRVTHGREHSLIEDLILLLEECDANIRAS

| IC50 (read-out: SMYD3 Biochem IC50) [µM] | SMILES | other results |
| --- | --- | --- |
|  | CC(NC(=O)c1ccc2c(c1)OCO2)C1CCN(C(=O)[C@H](C)N)CC1 (stereo partly drawn) [compound 146, N-(1-(1-(L-alanyl)piperidin-4-yl)ethyl)benzo[d][1,3]dioxole-5-carboxamide] | IC50 [1]: > 100 µM |
| > 100 | CC(NC(=O)c1ccc(O)cn1)C1CCN(C(=O)[C@H](C)N)CC1 (stereo partly drawn) [compound 310, N-(1-(1-(L-alanyl)piperidin-4-yl)ethyl)-5-hydroxypicolinamide] |  |
| > 100 | N[C@H]1CC[C@H](NC(=O)[C@H]2CC[C@H](N)CC2)CC1 [compound 304, (1r,4r)-4-amino-N-((1r,4r)-4-aminocyclohexyl)cyclohexane-1-carboxamide] |  |
|  | NCCC(=O)N[C@H]1CC[C@H](NC(=O)c2n[nH]c(=O)[nH]2)CC1 [compound 530, N-((1r,4r)-4-(3-aminopropanamido)cyclohexyl)-5-oxo-4,5-dihydro-1H-1,2,4-triazole-3-carboxamide] | IC50 [2]: > 50 µM |
| > 100 | N[C@H]1CC[C@H](NC(=O)c2cccc3c2CC(=O)N3)CC1 [compound 400, N-((1r,4r)-4-aminocyclohexyl)-2-oxoindoline-4-carboxamide] |  |
|  | C[C@H](N)C(=O)NCCCCNC(=O)c1ccc2c(c1)CC(=O)N2 [compound 107, (S)-N-(4-(2-aminopropanamido)butyl)-2-oxoindoline-5-carboxamide] | IC50 [1]: 14 µM |
|  | N[C@H]1CC[C@H](NC(=O)c2cc3cc(Br)ccc3nc2O)CC1 [compound 565, N-((1r,4r)-4-aminocyclohexyl)-6-bromo-2-hydroxyquinoline-3-carboxamide] | IC50 [2]: > 10 µM |
| > 50 | Cc1cc2cc(C(=O)N[C@H]3CC[C@H](N)CC3)ccc2[nH]1 [compound 520, N-((1r,4r)-4-aminocyclohexyl)-2-methyl-1H-indole-5-carboxamide] |  |
| > 100 | CC(NC(=O)c1ccc(O)nn1)C1CCN(C(=O)[C@H](C)N)CC1 (stereo partly drawn) [compound 191, N-(1-(1-(L-alanyl)piperidin-4-yl)ethyl)-6-hydroxypyridazine-3-carboxamide] |  |
| > 100 | N[C@H]1CC[C@H](NC(=O)c2ccc(-n3cnnc3)cc2)CC1 [compound 278, N-((1r,4r)-4-aminocyclohexyl)-4-(4H-1,2,4-triazol-4-yl)benzamide] |  |
| > 100 | Cn1ncc2ccc(C(=O)N[C@H]3CC[C@H](N)CC3)cc21 [compound 275, N-((1r,4r)-4-aminocyclohexyl)-1-methyl-1H-indazole-6-carboxamide] |  |
|  | N[C@H]1CC[C@H](NC(=O)c2ccc3nc(O)cnc3c2)CC1 [compound 43, N-((1r,4r)-4-aminocyclohexyl)-2-hydroxyquinoxaline-6-carboxamide] | IC50 [1]: 60.4 µM |
| 10.6 | Cc1cnc(C(=O)NC(C)C2CCN(C(=O)[C@H](C)N)CC2)s1 (stereo partly drawn) [compound 396, N-(1-(1-(L-alanyl)piperidin-4-yl)ethyl)-5-methylthiazole-2-carboxamide] |  |
| > 100 | Cc1cnc(C(=O)NC(C)C2CCN(C(=O)[C@H](C)N)CC2)cn1 (stereo partly drawn) [compound 185, N-(1-(1-(L-alanyl)piperidin-4-yl)ethyl)-5-methylpyrazine-2-carboxamide] |  |
|  | N[C@H]1CC[C@H](NC(=O)c2ccc3c(c2)OCC(=O)N3)CC1 [compound 19, N-((1r,4r)-4-aminocyclohexyl)-3-oxo-3,4-dihydro-2H-benzo[b][1,4]oxazine-7-carboxamide] | IC50 [1]: 102 µM |
| > 100 | Cc1cc(C(=O)NC(C)C2CCN(C(=O)[C@H](C)N)CC2)ccn1 (stereo partly drawn) [compound 392, N-(1-(1-(L-alanyl)piperidin-4-yl)ethyl)-2-methylisonicotinamide] |  |
| > 100 | Cn1nccc1C(=O)N[C@H]1CC[C@H](NC(=O)CCN)CC1 [compound 414, N-((1r,4r)-4-(3-aminopropanamido)cyclohexyl)-1-methyl-1H-pyrazole-5-carboxamide] |  |
| > 100 | CC(NC(=O)c1cc(O)c2ccccc2n1)C1CCN(C(=O)[C@H](C)N)CC1 (stereo partly drawn) [compound 225, N-(1-(1-(L-alanyl)piperidin-4-yl)ethyl)-4-hydroxyquinoline-2-carboxamide] |  |
